From publication PMC4207550 (Drug Design, Development and Therapy, 2014)

Experiments:
Assay type in all cases: biochemical
[1] = target: human recombinant butyrylcholinesterase (hBuChE) (Homo sapiens, UniProt P06276); test: Inhibition of hBuChE, Ellman method
human recombinant MAO B [2] = target: T1, human recombinant MAO B (Homo sapiens, UniProt P27338); test: Time-dependent inhibition of human recombinant MAO B; conditions: pre-incubation times 15–60 minutes
T1 sequence (P27338 1-520): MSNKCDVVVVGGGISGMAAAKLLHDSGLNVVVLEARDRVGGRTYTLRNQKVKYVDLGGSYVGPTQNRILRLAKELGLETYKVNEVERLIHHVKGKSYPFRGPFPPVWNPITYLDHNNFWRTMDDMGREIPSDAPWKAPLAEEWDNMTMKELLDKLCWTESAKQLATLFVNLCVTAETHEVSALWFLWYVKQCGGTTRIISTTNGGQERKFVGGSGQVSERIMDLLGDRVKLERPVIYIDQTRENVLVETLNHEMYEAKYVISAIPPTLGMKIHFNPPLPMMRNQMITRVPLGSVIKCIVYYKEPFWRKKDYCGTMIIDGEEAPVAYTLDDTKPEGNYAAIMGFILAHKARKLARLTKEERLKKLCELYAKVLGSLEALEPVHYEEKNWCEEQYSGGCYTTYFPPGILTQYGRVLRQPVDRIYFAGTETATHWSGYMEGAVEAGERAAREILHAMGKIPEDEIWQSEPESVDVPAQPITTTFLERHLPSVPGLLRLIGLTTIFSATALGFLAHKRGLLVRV

[3] = target: human recombinant acetylcholinesterase (hAChE) (Homo sapiens, UniProt P22303); test: Inhibition of hAChE, Ellman method
Sequence of human recombinant acetylcholinesterase (hAChE) (P22303 32-614): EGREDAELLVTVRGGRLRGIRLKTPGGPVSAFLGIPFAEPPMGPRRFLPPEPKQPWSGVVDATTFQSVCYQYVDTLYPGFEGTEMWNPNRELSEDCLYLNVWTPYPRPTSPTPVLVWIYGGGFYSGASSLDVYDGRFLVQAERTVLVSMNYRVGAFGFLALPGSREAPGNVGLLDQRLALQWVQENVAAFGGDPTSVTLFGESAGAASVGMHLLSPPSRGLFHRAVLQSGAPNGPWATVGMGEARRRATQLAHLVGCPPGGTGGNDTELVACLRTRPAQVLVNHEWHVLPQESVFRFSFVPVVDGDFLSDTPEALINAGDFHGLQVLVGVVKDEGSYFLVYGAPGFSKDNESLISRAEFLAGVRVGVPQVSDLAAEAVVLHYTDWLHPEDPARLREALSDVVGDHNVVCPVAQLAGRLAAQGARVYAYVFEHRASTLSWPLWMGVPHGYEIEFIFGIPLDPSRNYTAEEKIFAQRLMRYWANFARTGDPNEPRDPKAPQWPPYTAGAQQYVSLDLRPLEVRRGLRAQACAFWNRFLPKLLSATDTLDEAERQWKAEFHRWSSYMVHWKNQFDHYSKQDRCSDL

human recombinant MAO B [4] = target: T1, human recombinant MAO B; test: Test of reversibility of inhibition of human recombinant MAO B

Sequence of human recombinant butyrylcholinesterase (hBuChE) (P06276 29-602): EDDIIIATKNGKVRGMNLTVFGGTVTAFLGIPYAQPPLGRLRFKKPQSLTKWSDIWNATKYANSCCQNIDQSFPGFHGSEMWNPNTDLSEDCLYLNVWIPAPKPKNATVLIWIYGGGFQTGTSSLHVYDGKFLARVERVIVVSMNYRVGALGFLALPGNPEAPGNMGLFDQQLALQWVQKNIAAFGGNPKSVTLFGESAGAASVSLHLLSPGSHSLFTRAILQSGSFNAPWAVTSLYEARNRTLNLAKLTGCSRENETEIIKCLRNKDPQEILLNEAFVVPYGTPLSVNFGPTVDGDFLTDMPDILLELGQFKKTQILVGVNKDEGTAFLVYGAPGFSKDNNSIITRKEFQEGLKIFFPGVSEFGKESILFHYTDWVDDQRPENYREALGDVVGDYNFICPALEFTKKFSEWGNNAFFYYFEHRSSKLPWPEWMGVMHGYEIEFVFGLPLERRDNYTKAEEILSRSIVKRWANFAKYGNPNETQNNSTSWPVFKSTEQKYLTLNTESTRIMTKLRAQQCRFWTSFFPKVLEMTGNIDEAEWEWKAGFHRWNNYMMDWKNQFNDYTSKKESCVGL

| Structure (SMILES) | IC50 [1] | time dependence of hMAO B inhibition (human recombinant MAO B [2]) | IC50 [3] | reversibility of hMAO B inhibition (human recombinant MAO B [4]; 50 μM, after 100-fold dilution with 1 mM tyramine) | inhibition at 50 µM (human recombinant MAO B [4]; read-out: initial MAO B inhibition) | fold more potent than donepezil for hBuChE ([1]; vs donepezil) | fold more active than donepezil for the inhibition of hAChE ([3]; vs donepezil) |
| --- | --- | --- | --- | --- | --- | --- | --- |
| C#CCNc1nc(NCCCCC2CCN(Cc3ccccc3)CC2)c(C#N)c(-c2ccccc2)c1C#N [DPH12] | 770 ± 140 nM | – | – | – | – | – | – |
| C#CCN(C)c1nc(NCCCCC2CCN(Cc3ccccc3)CC2)c(C#N)c(-c2ccccc2)c1C#N [DPH9] | 1190 nM | – | – | – | – | – | – |
| C#CCN(C)c1nc(NCCCCC2CCN(Cc3ccccc3)CC2)c(C#N)cc1C#N [DPH14] | 835 ± 139 nM | time-dependent inhibition | 13.1 ± 2.1 nM | irreversible | 55% | – | – |
| C#CCNc1nc(NCCCCC2CCN(Cc3ccccc3)CC2)c(C#N)cc1C#N [DPH16] | 790 ± 110 nM | – | – | – | – | 9.2 fold | 3.1 fold |
